Assay results as given in patent publication EP0558245A1, “Heterobicyclic compounds as antagogists of alpha-1 adrenergic and SHT1A receptors” (priority 1992, dated 1993).
Counter-ions that a name gives are not always drawn. Like-named read-outs stand apart in the source and are kept apart here.

Legend:
α₁ receptors = assay: [3H]prazosin binding (α1 receptors), rat cerebral cortex membranes; settings: rat cerebral cortex crude membranes, [3H]prazosin 0.35 nM, 25°C 30 min; read-out: Receptor Binding IC50 (nM) α1
Method: Rat cerebral cortices were homogenized in 50 volumes of original wet weight of ice-cold 50 mM Tris-HCl buffer pH 7.4. The homogenates were centrifuged at 48,000 x g for 10 minutes, and the pellets were resuspended in the same volume of ice-cold buffer, centrifuged and resuspended two more times. The final pellets obtained were resuspended in the same volume of buffer and incubated according to the conditions reported in the table below.
(§1) The incubations were terminated after the appropriate time (see table) by rapid filtration through Whatman GF/B filters using a Brandel cell harvester. The filters were washed twice with 15 ml of ice-cold buffer (see table). The radioactivity retained on the filters was determined by liquid scintillation counting. Nonspecific binding (which amounted generally to 10-30%) was evaluated by adding high concentrations of the specific displacers (see table). All the compounds were initially tested at 1x10⁻⁶ M concentration, and in the presence of significant displacing activity, a complete competition curve was generated (down to a concentration of 10⁻¹¹ M). All the samples were run in triplicate.

[1] = Acute toxicity in mice after intraperitoneal and oral administration; settings: mouse, in vivo, female albino Swiss mice, mortality recorded 7 days after administration
Method: Male Sprague Dawley rats [Crl: CD' BR] of 200-300 g b.w., female Albino Swiss mice [Crl: CD-1 (ICR) BR] 20-30 g b.w., and male Beagle dogs (10-12 kg b.w.) were obtained from Charles River, Italy and Nossan (Correzzana, Milan, Italy), respectively. Animals were housed with free access to food and water and maintained on forced light-dark cycle at 22-24°C until the day of experiments.
The acute toxicity of synthesized compounds was evaluated in female albino Swiss mice after intraperitoneal and oral administration. Four logarithmic scaled doses of the compounds were dissolved or suspended in 0.5% Methocel and administered in a volume of 10 ml/kg to groups of 4 mice/dose. Mortality was recorded 7 days after the administration. Data analysis: the LD₅₀ values and their fiducial limits were calculated according to the method of Weil (Biometrics, 8, 249, 1952).

5HT1A receptors = molecular target: T1, 5HT1A receptors (Rattus norvegicus, UniProt P19327); assay: [3H]8-OH-DPAT binding (5HT1A receptors), rat hippocampus membranes; settings: rat hippocampus crude membranes, [3H]8-OH-DPAT 1.0 nM, 25°C 30 min; read-out: Receptor Binding IC50 (nM) 5-HT1a
T1 construct: Rat hippocampi were homogenized; from tissue; host or cells: rat hippocampus membranes
T1 sequence (P19327 1-422): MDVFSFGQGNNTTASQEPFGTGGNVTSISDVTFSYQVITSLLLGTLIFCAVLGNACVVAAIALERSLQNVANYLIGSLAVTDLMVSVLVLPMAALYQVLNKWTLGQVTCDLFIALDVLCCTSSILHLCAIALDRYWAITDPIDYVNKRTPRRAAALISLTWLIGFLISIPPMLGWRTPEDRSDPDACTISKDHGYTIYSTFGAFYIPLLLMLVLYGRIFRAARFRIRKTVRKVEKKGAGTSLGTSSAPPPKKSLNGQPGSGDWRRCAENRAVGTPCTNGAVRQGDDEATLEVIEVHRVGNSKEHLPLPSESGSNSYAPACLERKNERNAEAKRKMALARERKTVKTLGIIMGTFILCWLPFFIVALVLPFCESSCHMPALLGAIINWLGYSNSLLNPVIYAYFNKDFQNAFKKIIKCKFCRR
Method: Rat hippocampi were homogenized in 50 volumes of original wet weight of ice-cold 50 mM Tris-HCl buffer pH 7.4. The homogenates were centrifuged at 48,000 x g for 10 minutes, and the pellets were resuspended in the same volume of ice-cold buffer, incubated for 10 minutes at 37°C, centrifuged and resuspended two more times. The final pellets obtained were resuspended in the same volume of buffer and incubated according to the conditions reported in the table below.
as §1
The competition curves were always analyzed (to evaluate the IC₅₀ values) by non linear curve fitting of the logistic equation according to the method reported by De Lean et al. (Am. J. Physiol., 235, E97, 1978), utilizing the ALLFIT program [publically available from the National Institutes of Health (N.I.H.) Bethesda, Maryland, USA] written for the IBM PC.

[2] = ip, intraperitoneal, read-out: Acute Toxicity in Mice LD50 (mg/kg) i.p.
[3] = oral, read-out: Acute Toxicity in Mice LD50 (mg/kg) p.o.

| SMILES | IC50 (α₁ receptors) [nM] | LD50 at 168 h [1, 2] [mg/kg] | LD50 at 168 h [1, 3] [mg/kg] | IC50 (5HT1A receptors) [nM] |
| --- | --- | --- | --- | --- |
| COc1ccccc1N1CCN(CCC(=O)c2cccc3c(=O)c(C)c(-c4ccccc4)oc23)CC1.Cl [Example 4, 8-{3-[4-(2-methoxyphenyl)-1-piperazinyl]-1-oxopropyl}-3-methyl-4-oxo-2-phenyl-4H-1-benzopyran hydrochloride] | 550 | 346 | 1730 | 55 |
| COc1ccccc1N1CCN(CCOC(=O)c2cccc3c(=O)c(C)c(-c4ccccc4)oc23)CC1.Cl.Cl [Example 6, 8-{2-[4-(2-methoxyphenyl)-1-piperazinyl]-ethoxycarbonyl}-3-methyl-4-oxo-2-phenyl-4H-1-benzopyran dihydrochloride] | 107 | 233 | – | 1000 |
| Cc1c(-c2ccccc2)oc2c(C(=O)OCCCN3CCN(c4ccccc4Cl)CC3)cccc2c1=O.Cl.Cl [Example 7, 8-{3-[4-(2-chlorophenyl)-1-piperazinyl]-propoxycarbonyl}-3-methyl-4-oxo-2-phenyl-4H-1-benzopyran dihydrochloride] | 86 | 384 | 1920 | 155 |
| Cc1c(-c2ccccc2)oc2c(C(=O)OCCCN3CCN(c4ccccc4)CC3)cccc2c1=O.Cl.Cl [Example 8, 8-[3-(4-phenyl-1-piperazinyl)-propoxycarbonyl]-3-methyl-4-oxo-2-phenyl-4H-1-benzopyran dihydrochloride] | 66 | > 500 | 1920 | 111 |
| COc1ccccc1OCCNCCCNC(=O)c1cccc2c(=O)c(C)c(-c3ccccc3)oc12.Cl [Example 14, 8-{3-[2-(2-methoxyphenoxy)-ethylamino]-propylcarbamoyl}-3-methyl-4-oxo-2-phenyl-4H-1-benzopyran hydrochloride] | 61 | 140 | 559 | 6 |
| Cc1c(-c2ccccc2)oc2c(C(=O)NCCCN3CCN(c4ccccc4)CC3)cccc2c1=O [Example 15, 8-[3-(4-phenyl-1-piperazinyl)-propylcarbamoyl]-3-methyl-4-oxo-2-phenyl-4H-1-benzopyran monohydrochloride hemihydrate] | 8 | 306 | 496 | 131 |
| Cc1ccccc1N1CCN(CC(O)c2cccc3c(=O)c(C)c(-c4ccccc4)oc23)CC1.Cl (centres unmarked) [Example 18, 8-{1-hydroxy-2-[4-(2-methylphenyl)-1-piperazinyl]-ethyl}-3-methyl-4-oxo-2-phenyl-4H-1-benzopyran hydrochloride] | 270 | 457 | 3000 | > 1000 |
| CCOc1ccccc1N1CCN(CC(O)c2cccc3c(=O)c(C)c(-c4ccccc4)oc23)CC1.Cl (centres unmarked) [Example 19, 8-{1-Hydroxy-2-[4-(2-ethoxyphenyl)-1-piperazinyl]-ethyl}-3-methyl-4-oxo-2-phenyl-4H-1-benzopyran hydrochloride] | 165 | > 1000 | > 3000 | 340 |
| CCOC(CN1CCN(c2ccccc2OC)CC1)c1cccc2c(=O)c(C)c(-c3ccccc3)oc12.Cl (centres unmarked) [Example 22, 8-{1-ethoxy-2-[4-(2-methoxyphenyl)-1-piperazinyl]-ethyl}-3-methyl-4-oxo-2-phenyl-4H-1-benzopyran hydrochloride] | 117 | > 500 | > 2000 | 48 |
| COc1ccccc1N1CCN(CCN(Cc2cccc3c(=O)c(C)c(-c4ccccc4)oc23)C(C)=O)CC1.Cl [Example 24, 8-{N-acetyl-2-[4-(2-methoxyphenyl)-1-piperazinyl]-ethylaminomethyl}-3-methyl-4-oxo-2-phenyl-4H-1-benzopyran hydrochloride] | 690 | > 1000 | > 3000 | 212 |
| COc1ccccc1N1CCN(CC(=O)N(C)Cc2cccc3c(=O)c(C)c(-c4ccccc4)oc23)CC1 [Example 26, 8-{N-methyl-N-[4-(2-methoxyphenyl)-1-piperazinyl]-acetamidomethyl}-3-methyl-4-oxo-2-phenyl-4H-1-benzopyran hydrochloride hydrate] | 270 | > 500 | > 2000 | > 1000 |
| CCOc1ccccc1OCCNCCOCc1cccc2c(=O)c(C)c(-c3ccccc3)oc12.Cl [Example 28, 8-{2-[2-(2-ethoxyphenoxy)-ethylamino]-ethoxymethyl}-3-methyl-4-oxo-2-phenyl-4H-1-benzopyran hydrochloride] | 120 | 203 | 1130 | 96 |
| COc1ccccc1N1CCN(CCCN(C)c2cccc3c(=O)c(C)c(-c4ccccc4)oc23)CC1 [Example 35, 8-{N-methyl-3-[4-(2-methoxyphenyl)-1-piperazinyl]-propylamino}-3-methyl-4-oxo-2-phenyl-4H-1-benzopyran hydrochloride hemihydrate] | 15 | 329 | 959 | 8 |
| COc1ccccc1N1CCN(CCCN(C(C)=O)c2cccc3c(=O)c(C)c(-c4ccccc4)oc23)CC1.Cl.O [Example 36, 8-{N-acetyl-3-[4-(2-methoxyphenyl)-1-piperazinyl]-propylamino}-3-methyl-4-oxo-2-phenyl-4H-1-benzopyran hydrochloride hydrate] | 18 | > 500 | > 2000 | 54 |
| COc1ccccc1N1CCN(CCC(=O)Nc2cccc3c(=O)c(C)c(-c4ccccc4)oc23)CC1.Cl [Example 37, 8-{3-[4-(2-methoxyphenyl)-1-piperazinyl]-propionamido}-3-methyl-4-oxo-2-phenyl-4H-1-benzopyran hydrochloride] | 32 | > 500 | > 2000 | 77 |
| COc1ccccc1N1CCN(CCNC(=O)Nc2cccc3c(=O)c(C)c(-c4ccccc4)oc23)CC1.CS(=O)(=O)O [Example 38, 8-{2-[4-(2-methoxyphenyl)-1-piperazinyl]-ethylureido}-3-methyl-4-oxo-2-phenyl-4H-1-benzopyran methanesulphonate] | 20 | > 500 | > 2000 | 344 |
| COc1ccccc1N1CCN(CCOc2cccc3c(=O)c(C)c(-c4ccccc4)oc23)CC1.Cl.O [Example 39, 8-{2-[4-(2-methoxyphenyl)-1-piperazinyl]-ethoxy}-3-methyl-4-oxo-2-phenyl-4H-1-benzopyran hydrochloride hydrate] | 90 | > 1000 | > 3000 | 170 |
| COc1ccccc1N1CCN(CCNS(=O)(=O)c2cccc3c(=O)c(C)c(-c4ccccc4)oc23)CC1.Cl [Example 48, 8-{2-[4-(2-methoxyphenyl)-1-piperazinyl]-ethylsulphamoyl}-3-methyl-4-oxo-2-phenyl-4H-1-benzopyran hydrochloride] | 104 | 500 | 1910 | 5 |
| COc1ccccc1N1CCN(CCN(C)S(=O)(=O)c2cccc3c(=O)c(C)c(-c4ccccc4)oc23)CC1.Cl [Example 49, 8-{N-methyl-2-[4-(2-methoxyphenyl)-1-piperazinyl]-ethylsulphamoyl}-3-methyl-4-oxo-2-phenyl-4H-1-benzopyran hydrochloride] | 152 | 432 | > 2000 | 9 |
| COc1ccccc1N1CCN(CCCN(C(N)=O)c2cccc3c(=O)c(C)c(-c4ccccc4)oc23)CC1 [Example 50, 8-{N-carbamoyl-3-[4-(2-methoxyphenyl)-1-piperazinyl]-propylamino}-3-methyl-4-oxo-2-phenyl-4H-1-benzopyran methanesulphonate hemihydrate] | 39 | 211 | 299 | 300 |
| Cc1c(-c2ccccc2)oc2c(C(=O)NCCCNCC3COc4ccccc4O3)cccc2c1=O (centres unmarked) [Example 52, 8-{3-[2-(1,4-benzodioxanyl)methylamino]propylcarbamoyl}-3-methyl-4-oxo-2-phenyl-4H-1-benzopyran methansulphonate] | 89 | 127 | 224 | 2 |
